From patent publication US20250074911A1, “MACROCYCLIC BTK INHIBITORS” (Crossfire Oncology Holding B.V., priority 2021, published 2025)
Several values for one entry are separate records, joined by “and”; a condition that tells them apart may be missing. Equal values may be shown once.

Assays:
[1] = molecular target: BTK C481S (Homo sapiens (Human), UniProt Q06187, C481S); experiment: Binding kinetics measurements (Surface Plasmon Resonance) on BTK C481S; settings: for Tau (h) BTK C418S (Act): target residence time for BTK C481S, SPR; for Kd: binding affinity by Surface Plasmon Resonance (SPR)
Chain of BTK C481S (Q06187 whole entry C481S): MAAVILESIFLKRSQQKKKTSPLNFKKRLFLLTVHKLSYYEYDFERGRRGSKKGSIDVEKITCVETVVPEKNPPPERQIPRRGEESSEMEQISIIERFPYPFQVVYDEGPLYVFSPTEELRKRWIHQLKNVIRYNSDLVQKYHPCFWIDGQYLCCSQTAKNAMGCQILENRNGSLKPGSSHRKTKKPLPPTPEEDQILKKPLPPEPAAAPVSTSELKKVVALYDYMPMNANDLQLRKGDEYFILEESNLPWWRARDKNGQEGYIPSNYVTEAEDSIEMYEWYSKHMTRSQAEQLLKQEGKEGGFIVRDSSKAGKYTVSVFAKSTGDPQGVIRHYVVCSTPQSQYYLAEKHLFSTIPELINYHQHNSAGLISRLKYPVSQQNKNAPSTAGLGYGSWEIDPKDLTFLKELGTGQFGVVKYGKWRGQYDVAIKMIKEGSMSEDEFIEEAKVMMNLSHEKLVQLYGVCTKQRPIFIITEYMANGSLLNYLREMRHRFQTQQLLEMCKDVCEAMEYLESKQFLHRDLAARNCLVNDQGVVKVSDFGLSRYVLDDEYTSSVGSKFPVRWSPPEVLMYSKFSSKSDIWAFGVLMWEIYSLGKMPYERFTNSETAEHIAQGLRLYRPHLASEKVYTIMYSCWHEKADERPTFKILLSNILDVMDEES
Procedure, shortened: (§1)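 Biotinylated BTK captured on streptavidin chips (4° C; free streptavidin blocked with biocytin); runs at 22° C in buffer with 1% DMSO, 30 μl/min. Single cycle kinetics, five injections rising over 3.16-316 nM; double-referenced sensorgrams fitted, two-state model for induced fit, duplicate constants geometrically averaged.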

[2] = molecular target: wt-BTK (Homo sapiens (Human), UniProt Q06187); experiment: Binding kinetics measurements (Surface Plasmon Resonance) on wt-BTK; settings: for Tau (h) wt-BTK (Act): target residence time, SPR; for Kd: binding affinity by Surface Plasmon Resonance (SPR)
Chain of wt-BTK (Q06187 whole entry): as the sequence (Q06187 whole entry C481S) above, with S481C counted along it
Procedure, shortened: as §1

[3] = molecular target: BTK T474S (Homo sapiens (Human), UniProt Q06187, T474S); experiment: Binding kinetics measurements (Surface Plasmon Resonance) on BTK T474S; settings: for residence time: SPR binding kinetics, BTK T474S, read-out: Tau (h) BTK T474S (Act), target residence time (converted); for Kd: binding affinity by Surface Plasmon Resonance (SPR)
Chain of BTK T474S (Q06187 whole entry T474S): as the sequence (Q06187 whole entry C481S) above, with T474S, S481C counted along it
Protocol: (§2) Binding kinetics measurements on wt-BTK, BTK […], BTK […], BTK […] and BTK […] (Surface Plasmon Resonance) Streptavidin-coated chips (Cat. No. BR100531), disposables and maintenance kits for Biacore were purchased from Cytiva (Eindhoven, The Netherlands). […] Remaining streptavidin was blocked with biocytin. Immobilization was performed at 4° C. Subsequent assay steps were conducted at 22° C. After changing buffer to Biacore buffer with 1% (v/v) dimethylsulfoxide (DMSO), a pre-run was performed for a period of at least 30 min at a flow rate of 30 μl/min to obtain a stable surface. The kinetic constants of the compounds were determined with single cycle kinetics with five consecutive injections with an increasing compound concentration with ranges of 3.16-316 nM. […] To circumvent problems of mass transport limitation, a flow rate of 30 μl/min was used. A blank run with the same conditions was performed before the compound was injected. The SPR sensorgrams were analyzed with Biacore Evaluation Software by using a method of double referencing. First the reference channel was subtracted from the channel containing immobilized protein. Subsequently, the reference curve obtained with buffer injections was subtracted. […] Compounds that bound according to an induced fit model were fitted with a two-state reaction model. The kinetic constants (ka, […], KD) of duplicates were geometrically averaged. […] Target residence for an induced fit model was calculated as described (Tummino and Copeland, 2008).

[4] = system: wt-REC-1 mantle cell lymphoma cells; experiment: Cell proliferation assay wt-REC-1 (ATPlite, 72 hours); type: cell-based; settings: 72 h; read-out: IC50 wt-REC-1
Procedure, shortened: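 Luminescent viability read over 72 h, start-of-incubation signal recorded separately to separate growth from cell death. Percentage growth referenced to compound-free 0.3% DMSO wells; IC50 from 4-parameter logistic fit.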

[5] = system: REC-1 T474I cell lines; experiment: Cell proliferation assay REC-1 BTK T474I knock-in cells (ATPlite, 72 hours); type: cell-based; settings: Homo sapiens, Rec1; 72 hours; read-out: IC50 REC-1 T474I
Procedure, shortened: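 REC-1 cells carrying CRISPR knock-in mutant BTK, single-cell cloned and sequence-confirmed, were exposed to compound for 72 h and read by ATPlite luminescence. Percentage growth was calculated against the signal at the start of incubation and against untreated 0.3% DMSO wells as maximum growth.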

[6] = system: wt-TMD8 diffuse large B-cell lymphoma cells; experiment: Cell proliferation assay wt-TMD8 (ATPlite, 120 hours); type: cell-based; settings: B-cell; wt-TMD8 cells, 120 hours, ATPlite; read-out: IC50 wt-TMD8
Procedure, shortened: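 wt-TMD8 DLBCL cells, 1600 per well in RPMI-1640 with 10% FBS, rested ≥5 h then exposed to compound for 120 h at 37° C, 5% CO2. Viability read by ATPlite luminescence; percentage growth calculated relative to start-of-incubation signal and untreated 0.3% DMSO maximum growth.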

[7] = molecular target: full-length BTK C481S enzyme (Homo sapiens (Human), UniProt Q06187, C481S); experiment: Biochemical kinase assay BTK C481S (IMAP)
Chain of full-length BTK C481S enzyme (Q06187 whole entry C481S): as the sequence (Q06187 whole entry C481S) above
Procedure, shortened: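 Full-length BTK C481S (1.2 nM) was pre-incubated with compound for 1 h at room temperature in the dark, then reacted with fluorescein-labelled MBP-derived peptide (50 nM) and ATP (7 μM) for 2 h. Reactions were quenched with IMAP binding solution, and IC50 values were derived from fluorescence polarization.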

[8] = molecular target: BTK T316A (Homo sapiens (Human), UniProt Q06187, T316A); experiment: Binding kinetics measurements (Surface Plasmon Resonance) on BTK T316A; settings: for Tau (h) BTK T316A (Act): target residence time, SPR; for Kd: binding affinity by Surface Plasmon Resonance (SPR)
Chain of BTK T316A (Q06187 whole entry T316A): as the sequence (Q06187 whole entry C481S) above, with T316A, S481C counted along it
Protocol: as §2

[9] = molecular target: full-length wt-BTK enzyme (Homo sapiens (Human), UniProt Q06187); experiment: Biochemical kinase assay wt-BTK (IMAP)
Chain of full-length wt-BTK enzyme (Q06187 whole entry): as the sequence (Q06187 whole entry C481S) above, with S481C counted along it
Procedure, shortened: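 IMAP fluorescence polarization assay: 1.2 nM enzyme pre-incubated 1 h with compound at room temperature, then 50 nM fluorescein-labeled MBP-derived peptide and 4 μM ATP added. Reaction ran 2 h at room temperature in the dark before quenching with IMAP binding solution.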

[10] = molecular target: BTK T474I (Homo sapiens (Human), UniProt Q06187, T474I); experiment: Binding kinetics measurements (Surface Plasmon Resonance) on BTK T474I; settings: for Tau (h) BTK T474I (Act): target residence time, SPR; for Kd: binding affinity by Surface Plasmon Resonance (SPR)
Chain of BTK T474I (Q06187 whole entry T474I): as the sequence (Q06187 whole entry C481S) above, with T474I, S481C counted along it
Procedure, shortened: as §1

| Structure (SMILES) | Tau (h) BTK C418S (Act) [1] [h] | Tau (h) wt-BTK (Act) [2] [h] | residence time [3] [h] | IC50 [4] [nM] | IC50 [5] [nM] | IC50 [6] [nM] | IC50 [7] [nM] | Tau (h) BTK T316A (Act) [8] [h] | IC50 [9] [nM] | Tau (h) BTK T474I (Act) [10] [h] | Kd [1] [nM] | Kd [2] [nM] | Kd [3] [nM] | Kd [8] [nM] | Kd [10] | target residence time on BTK C481 mutants ([1]; result in words) | target residence time on wild-type-BTK ([2]; result in words) | target residence time on BTK T474 mutants (T474S) ([3]; result in words) | target residence time on BTK T316 mutants ([8]; result in words) | target residence time on BTK T474 mutants (T474I) ([10]; result in words) |
| --- | --- | --- | --- | --- | --- | --- | --- | --- | --- | --- | --- | --- | --- | --- | --- | --- | --- | --- | --- | --- |
| Nc1ncc2c3c1c(-c1ccc(C(=O)Nc4cc(C(F)(F)F)ccn4)cc1)nn3[C@@H]1CC[C@H](C1)NC(=O)CCOCC/C=C/2 [Example 169] | 6.60 | 2.34 | 2.56 | < 100 | < 100 | < 100 | < 5 | 1.77 | < 5 | 3.69 | – | – | – | – | – | – | – | – | – | – |
| C[C@@H]1CCn2nc(-c3ccc(C(=O)Nc4cc(C(F)(F)F)ccn4)cc3)c3c(N)ncc(c32)/C=C/CSCC(=O)N1 [Example 61] | 7.19 | 4.95 | 2.48 | < 100 | – | < 100 | < 5 | 1.85 | < 5 | – | < 5 | < 5 | < 3 | < 5 | < 2 nM | – | – | – | – | – |
| Nc1ncc2n3c(nc(-c4ccc(C(=O)Nc5cc(C(F)(F)F)ccn5)cc4)c13)[C@@H]1CCC[C@H](C1)NC(=O)CCCC/C=C/2 [Example 130] | 3.83 | 2.86 | 1.64 | < 100 | – | < 100 | < 5 | 2.22 | < 5 | – | < 5 | < 5 | < 3 | < 5 | < 2 nM | – | – | – | – | – |
| NC(=O)[C@H]1CCN(c2ncnc(N)c2F)C[C@@H]1N1CCC[C@@H](Nc2cc(Cl)cc(C(F)(F)F)c2)C1=O [vecabrutinib, reference compound] | 0.12 | 0.18 | 0.07 | – | – | – | – | 0.05 | – | 0.01 | – | – | – | – | – | short target residence times | short target residence times | short target residence times | short target residence times | short target residence times |
| Nc1ncc2n3c(nc(-c4ccc(C(=O)Nc5cc(C(F)(F)F)ccn5)cc4)c13)[C@@H]1CCC[C@H](C1)NC(=O)CCC/C=C/2 [Example 132] | 3.96 | 2.75 | 3.04 | 100 to 1000 | 500 to 10000 | – | < 5 | 1.58 | < 5 | – | < 5 | < 5 | < 3 | < 5 | < 2 nM | – | – | – | – | – |
| Nc1ncc2c3c1c(-c1ccc(C(=O)Nc4ccccn4)cc1)nn3[C@@H]1CCC[C@H](C1)NC(=O)CCCCC/C=C/2 [Example 24] | – | – | – | – | – | – | – | – | – | – | < 5 | < 5 | < 3 | < 5 | < 2 nM | – | – | – | – | – |
| Nc1ncc2c3c1c(-c1ccc(C(=O)Nc4cc(C(F)(F)F)ccn4)cc1)nn3[C@@H]1CCC[C@H](C1)C(=O)NCCCCCCC2 [Example 115] | 6.25 | 5.09 | 3.89 | 100 to 1000 | 100 to 500 | – | < 5 | 2.96 | < 5 | – | < 5 | < 5 | < 3 | < 5 | 10 to 50 nM and < 5 nM | – | – | – | – | – |
| Nc1ncc2n3c(nc(-c4ccc(C(=O)Nc5cc(C(F)(F)F)ccn5)cc4)c13)[C@@H]1CCC[C@H](C1)NC(=O)CCC/C=C\C2 [Example 133b] | – | – | – | – | – | – | < 5 | – | < 5 | – | < 5 | < 5 | < 3 | < 5 | < 2 nM | – | – | – | – | – |
| CC1NC/C=C/c2cnc(N)c3c(-c4ccc(C(=O)Nc5cc(C(F)(F)F)ccn5)cc4)nn(c23)[C@@H]2CCC[C@H](C2)NC1=O (single isomer, unassigned) [Example 146] | 5.76 | 3.88 | 2.69 | < 100 | 100 to 500 | < 100 | – | 2.12 | – | – | < 5 | < 5 | < 3 | < 5 | 10 to 50 nM and < 5 nM | – | – | – | – | – |
| Nc1ncc2c3c1c(-c1ccc(C(=O)Nc4cc(C(F)(F)F)ccn4)cc1)nn3[C@@H]1CCC[C@H](C1)NC(=O)CCCC/C=C\C2 [Example 98b] | 5.98 | 4.35 | 4.46 | 100 to 1000 | – | – | < 5 | 3.58 | < 5 | 1.14 | < 5 | < 5 | < 3 | < 5 | 10 to 50 nM and < 5 nM | – | – | – | – | – |
| C[C@@H]1CCn2nc(-c3ccc(C(=O)Nc4cc(C(F)(F)F)ccn4)cc3)c3c(N)ncc(c32)/C=C/CCCCC(=O)N1 [Example 54] | – | – | 4.37 | < 100 | 100 to 500 | < 100 | – | – | – | – | < 5 | < 5 | < 3 | < 5 | < 2 nM | – | – | – | – | – |
